# Measured values taken from US9682141B2, “Combination of kinase inhibitors and uses thereof” (INTELLIKINE LLC, priority 2011, dated 2017).
# Read-outs that look alike come from different tables or passages of the source.
# How the values were obtained:
# Assay type in all cases: biochemical
# [1] = molecular target: PI3K γ (Homo sapiens (Human), UniProt P48736); assay: PI 3-Kinase (human) HTRF assay, p110γ
# Description: An exemplary system is PI 3-Kinase (human) HTRF™ Assay from Upstate. […] Briefly, the assay is a time resolved FRET assay that indirectly measures PIP3 product formed by the activity of a PI3-K. The kinase reaction is performed in a microtitre plate (e.g., a 384 well microtitre plate). The total reaction volume is approximately 20 ul per well. In the first step, each well receives 2 ul of test compound in 20% dimethylsulphoxide resulting in a 2% DMSO final concentration. Next, approximately 14.5 ul of a kinase/PIP2 mixture (diluted in 1× reaction buffer) is added per well for a final concentration of 0.25-0.3 ug/ml kinase and 10 μM PIP2. The plate is sealed and incubated for 15 minutes at room temperature. To start the reaction, 3.5 ul of ATP (diluted in 1× reaction buffer) is added per well for a final concentration of 10 μM ATP. The plate is sealed and incubated for 1 hour at room temperature. The reaction is stopped by adding 5 ul of Stop Solution per well and then 5 ul of Detection Mix is added per well. The plate is sealed, incubated for 1 hour at room temperature, and then read on an appropriate plate reader. Data is analyzed and IC50s are generated using GraphPad Prism 5. For PI3K α, β, δ, and γ, the nM concentration of inhibitor to reach IC50 is provided.
# [2] = molecular target: PI3K δ (Homo sapiens (Human), UniProt O00329); assay: PI 3-Kinase (human) HTRF assay, p110δ/p85α
# PI3K δ, sequence (O00329 whole entry): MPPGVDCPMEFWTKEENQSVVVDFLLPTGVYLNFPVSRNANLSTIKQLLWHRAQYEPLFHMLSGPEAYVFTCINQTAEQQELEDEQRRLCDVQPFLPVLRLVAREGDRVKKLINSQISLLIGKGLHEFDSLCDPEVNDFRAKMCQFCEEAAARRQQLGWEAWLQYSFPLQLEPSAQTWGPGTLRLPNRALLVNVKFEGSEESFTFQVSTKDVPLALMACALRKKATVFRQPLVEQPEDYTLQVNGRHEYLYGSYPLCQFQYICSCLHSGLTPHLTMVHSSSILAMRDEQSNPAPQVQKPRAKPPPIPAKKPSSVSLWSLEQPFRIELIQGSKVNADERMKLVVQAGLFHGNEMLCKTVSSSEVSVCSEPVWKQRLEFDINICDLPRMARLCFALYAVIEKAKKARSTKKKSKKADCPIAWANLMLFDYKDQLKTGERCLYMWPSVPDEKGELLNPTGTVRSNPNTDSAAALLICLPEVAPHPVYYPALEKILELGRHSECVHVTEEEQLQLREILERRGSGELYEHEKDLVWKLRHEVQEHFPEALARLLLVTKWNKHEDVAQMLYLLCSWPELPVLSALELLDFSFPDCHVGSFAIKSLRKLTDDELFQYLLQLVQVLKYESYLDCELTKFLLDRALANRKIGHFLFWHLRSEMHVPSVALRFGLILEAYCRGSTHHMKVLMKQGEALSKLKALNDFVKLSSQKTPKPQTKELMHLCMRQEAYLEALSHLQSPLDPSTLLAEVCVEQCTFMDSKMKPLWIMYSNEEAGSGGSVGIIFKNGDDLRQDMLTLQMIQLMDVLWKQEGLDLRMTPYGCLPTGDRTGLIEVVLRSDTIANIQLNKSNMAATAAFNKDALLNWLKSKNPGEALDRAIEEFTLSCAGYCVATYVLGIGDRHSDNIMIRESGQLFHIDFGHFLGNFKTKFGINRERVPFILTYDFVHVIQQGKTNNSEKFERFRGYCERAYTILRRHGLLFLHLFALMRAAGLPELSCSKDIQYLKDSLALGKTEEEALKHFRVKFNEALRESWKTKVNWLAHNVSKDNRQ
# PI3K δ, sequence (P27986 whole entry partner): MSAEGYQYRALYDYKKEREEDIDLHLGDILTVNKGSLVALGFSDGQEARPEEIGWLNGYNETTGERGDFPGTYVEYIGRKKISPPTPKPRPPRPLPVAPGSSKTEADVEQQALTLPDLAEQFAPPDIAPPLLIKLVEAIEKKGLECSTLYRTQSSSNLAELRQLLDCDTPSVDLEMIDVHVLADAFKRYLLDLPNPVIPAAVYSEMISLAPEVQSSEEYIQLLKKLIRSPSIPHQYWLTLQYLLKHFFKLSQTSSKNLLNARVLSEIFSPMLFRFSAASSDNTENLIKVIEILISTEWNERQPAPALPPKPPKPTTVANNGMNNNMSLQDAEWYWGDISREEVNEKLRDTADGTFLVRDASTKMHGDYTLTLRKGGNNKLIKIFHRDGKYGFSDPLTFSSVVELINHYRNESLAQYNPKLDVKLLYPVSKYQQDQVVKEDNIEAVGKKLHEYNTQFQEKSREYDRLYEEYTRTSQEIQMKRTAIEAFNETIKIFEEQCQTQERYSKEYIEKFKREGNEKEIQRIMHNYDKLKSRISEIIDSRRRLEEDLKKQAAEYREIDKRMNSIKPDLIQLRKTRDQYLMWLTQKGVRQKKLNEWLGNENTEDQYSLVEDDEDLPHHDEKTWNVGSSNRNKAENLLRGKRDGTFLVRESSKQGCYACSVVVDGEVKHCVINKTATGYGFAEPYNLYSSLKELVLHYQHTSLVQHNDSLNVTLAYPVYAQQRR
# [3] = molecular target: PI3K α (Homo sapiens (Human), UniProt P42336); assay: PI 3-Kinase (human) HTRF assay, p110α/p85α
# PI3K α, sequence (P42336 whole entry): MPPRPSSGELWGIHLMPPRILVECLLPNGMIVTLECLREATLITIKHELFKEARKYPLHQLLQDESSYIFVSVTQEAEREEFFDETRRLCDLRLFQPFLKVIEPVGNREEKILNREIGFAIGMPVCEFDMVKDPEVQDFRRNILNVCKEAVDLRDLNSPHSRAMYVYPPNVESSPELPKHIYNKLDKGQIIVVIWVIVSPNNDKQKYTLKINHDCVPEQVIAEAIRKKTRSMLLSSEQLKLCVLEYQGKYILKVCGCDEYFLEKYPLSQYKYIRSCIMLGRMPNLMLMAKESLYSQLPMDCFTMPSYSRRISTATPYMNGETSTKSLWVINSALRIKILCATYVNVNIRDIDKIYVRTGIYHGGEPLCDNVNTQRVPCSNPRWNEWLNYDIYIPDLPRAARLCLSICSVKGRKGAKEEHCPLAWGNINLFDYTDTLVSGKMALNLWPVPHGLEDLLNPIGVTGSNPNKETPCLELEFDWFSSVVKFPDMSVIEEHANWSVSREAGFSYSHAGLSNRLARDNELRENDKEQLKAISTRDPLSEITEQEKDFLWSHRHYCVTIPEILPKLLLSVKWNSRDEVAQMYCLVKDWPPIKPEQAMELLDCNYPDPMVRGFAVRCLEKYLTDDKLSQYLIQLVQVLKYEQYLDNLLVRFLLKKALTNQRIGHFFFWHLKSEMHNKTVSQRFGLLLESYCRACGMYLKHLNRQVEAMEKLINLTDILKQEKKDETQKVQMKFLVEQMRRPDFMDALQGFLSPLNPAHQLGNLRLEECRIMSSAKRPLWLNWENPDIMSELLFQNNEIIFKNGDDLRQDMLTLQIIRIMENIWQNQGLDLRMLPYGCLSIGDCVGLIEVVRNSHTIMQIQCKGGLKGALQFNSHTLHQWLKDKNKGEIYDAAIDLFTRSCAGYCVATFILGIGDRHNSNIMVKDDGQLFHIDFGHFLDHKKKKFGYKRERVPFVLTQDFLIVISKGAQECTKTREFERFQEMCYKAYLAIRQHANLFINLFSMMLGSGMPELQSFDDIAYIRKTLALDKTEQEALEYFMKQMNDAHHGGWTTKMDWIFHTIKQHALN
# PI3K α, sequence (P27986 whole entry partner): as the sequence (P27986 whole entry partner) above
# [4] = molecular target: mTORC (Homo sapiens (Human), UniProt P42345); assay: mTOR inhibition assay (radiometric or LanthaScreen TR-FRET)
# Description: The compounds described herein can be tested against recombinant mTOR (Invitrogen) in an assay containing 50 mM HEPES, pH 7.5, 1 mM EGTA, 10 mM MgCl2, 2.5 mM, 0.01% Tween, 10 μM ATP (2.5 μCi of μ-32P-ATP), and 3 μg/mL BSA. Rat recombinant PHAS-1/4EBP1 (Calbiochem; 2 mg/mL) is used as a substrate. Reactions are terminated by spotting onto nitrocellulose, which is washed with 1M NaCl/1% phosphoric acid (approximately 6 times, 5-10 minutes each). Sheets are dried and the transferred radioactivity quantitated by phosphorimaging.
# For instance, one can use Invitrogen's LanthaScreen™ Kinase assay to test the inhibitors of mTOR disclosed herein. This assay is a time resolved FRET platform that measures the phosphorylation of GFP labeled 4EBP1 by mTOR kinase. The kinase reaction is performed in a white 384 well microtitre plate. The total reaction volume is 20 ul per well and the reaction buffer composition is 50 mM HEPES pH7.5, 0.01% Polysorbate 20, 1 mM EGTA, 10 mM MnCl2, and 2 mM DTT. In the first step, each well receives 2 ul of test compound in 20% dimethylsulphoxide resulting in a 2% DMSO final concentration. Next, 8 ul of mTOR diluted in reaction buffer is added per well for a 60 ng/ml final concentration. To start the reaction, 10 ul of an ATP/GFP-4EBP1 mixture (diluted in reaction buffer) is added per well for a final concentration of 10 μM ATP and 0.5 μM GFP-4EBP1. The plate is sealed and incubated for 1 hour at room temperature. […] The plate is sealed, incubated for 1 hour at room temperature, and then read on a plate reader set up for LanthaScreen™ TR-FRET. Data is analyzed and IC50s are generated using GraphPad Prism 5.
# [5] = PI 3-Kinase (human) HTRF assay, p110δ/p85α; details: read-out: PI3K γ IC50
# [6] = molecular target: PI3K β (Homo sapiens (Human), UniProt P42338); assay: PI 3-Kinase (human) HTRF assay, p110β/p85α
# PI3K β, sequence (P42338 whole entry): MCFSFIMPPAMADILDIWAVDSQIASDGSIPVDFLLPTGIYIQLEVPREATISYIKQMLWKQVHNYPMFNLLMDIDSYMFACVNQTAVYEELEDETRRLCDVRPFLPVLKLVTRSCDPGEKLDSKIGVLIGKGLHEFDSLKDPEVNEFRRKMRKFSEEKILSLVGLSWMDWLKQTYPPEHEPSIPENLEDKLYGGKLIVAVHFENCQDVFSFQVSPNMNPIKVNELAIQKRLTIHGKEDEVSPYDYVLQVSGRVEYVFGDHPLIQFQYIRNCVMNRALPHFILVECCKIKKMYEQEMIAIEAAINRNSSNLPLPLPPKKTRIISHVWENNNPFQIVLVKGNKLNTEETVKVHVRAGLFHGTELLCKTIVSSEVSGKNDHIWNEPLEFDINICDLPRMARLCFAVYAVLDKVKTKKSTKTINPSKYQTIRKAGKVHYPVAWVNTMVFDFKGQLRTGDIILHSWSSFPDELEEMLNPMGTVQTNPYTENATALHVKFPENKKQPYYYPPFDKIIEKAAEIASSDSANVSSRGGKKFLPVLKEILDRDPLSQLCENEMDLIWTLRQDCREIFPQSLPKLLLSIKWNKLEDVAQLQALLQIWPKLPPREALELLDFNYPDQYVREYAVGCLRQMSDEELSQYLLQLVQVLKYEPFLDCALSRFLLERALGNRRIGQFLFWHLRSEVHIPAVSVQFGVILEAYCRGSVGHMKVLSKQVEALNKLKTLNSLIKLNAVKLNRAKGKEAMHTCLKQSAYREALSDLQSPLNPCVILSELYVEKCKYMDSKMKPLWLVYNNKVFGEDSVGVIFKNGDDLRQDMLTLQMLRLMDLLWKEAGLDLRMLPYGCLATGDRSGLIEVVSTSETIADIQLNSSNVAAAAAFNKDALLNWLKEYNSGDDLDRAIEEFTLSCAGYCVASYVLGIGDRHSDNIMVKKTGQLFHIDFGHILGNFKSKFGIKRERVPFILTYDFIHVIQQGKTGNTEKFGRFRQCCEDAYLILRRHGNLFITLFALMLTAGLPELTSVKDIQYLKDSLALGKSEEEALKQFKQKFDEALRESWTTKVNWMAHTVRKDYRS
# PI3K β, sequence (P27986 whole entry partner): as the sequence (P27986 whole entry partner) above
compound,measurement,setting,value
Cn1cc(-c2ccnc3ccc(-c4ccc5oc(N)nc5c4)cc23)cn1 [Compound 26],IC50,[1]; read-out: PI3K γ IC50,< 100 nM
same,IC50,[2],< 100 nM
same,IC50,[3],< 100 nM
same,IC50,[4],< 1000 nM
Cn1cc(-c2cnc3ccc(-c4ccc5oc(N)nc5c4)cn23)cn1 [Compound 41],IC50,[1]; read-out: PI3K γ IC50,< 1000 nM
same,IC50,[2],< 1000 nM
same,IC50,[3],< 100 nM
same,IC50,[4],< 10000 nM
CN1CCC(n2cnc3ccc(-c4ccc5oc(N)nc5c4)cc3c2=O)CC1 [Compound 36],IC50,[1]; read-out: PI3K γ IC50,> 10000 nM
same,IC50,[2],< 10000 nM
same,IC50,[3],< 100 nM
same,IC50,[4],< 10000 nM
N#Cc1cnc2ccc(-c3ccc4oc(N)nc4c3)cc2c1-c1ccncc1 [Compound 46],IC50,[1]; read-out: PI3K γ IC50,< 100 nM
same,IC50,[2],< 100 nM
same,IC50,[3],< 100 nM
same,IC50,[4],< 100 nM
CN(C)[C@@H]1CCN(c2cnc3ccc(-c4ccc5oc(N)nc5c4)cc3n2)C1,IC50,[1]; read-out: PI3K δ IC50,< 10000 nM
same,IC50,[5],< 10000 nM
same,IC50,[3],< 100 nM
same,IC50,[4],< 1000 nM
same,IC50,[6],< 100 nM
Nc1nc2cc(-c3ccc4ncc(N5CC(N6CCN(C7CC7)CC6)C5)nc4c3)ccc2o1,IC50,[1]; read-out: PI3K δ IC50,< 10000 nM
same,IC50,[5],< 10000 nM
same,IC50,[3],< 100 nM
same,IC50,[4],< 10000 nM
same,IC50,[6],< 10000 nM
Cc1nccn1C1CN(c2cnc3ccc(-c4ccc5oc(N)nc5c4)cc3n2)C1,IC50,[1]; read-out: PI3K δ IC50,< 10000 nM
same,IC50,[5],< 10000 nM
same,IC50,[3],< 100 nM
same,IC50,[4],< 10000 nM
same,IC50,[6],< 10000 nM
C[C@@H]1CN(C(=O)C2CN(c3cnc4ccc(-c5ccc6oc(N)nc6c5)cc4n3)C2)CCN1,IC50,[1]; read-out: PI3K δ IC50,< 1000 nM
same,IC50,[5],< 1000 nM
same,IC50,[3],< 100 nM
same,IC50,[4],< 10000 nM
same,IC50,[6],< 10000 nM
O=C(c1cnc2ccc(-c3cnc(Cl)c(NS(=O)(=O)c4ccc(F)cc4F)c3)cn12)N1CCOCC1,IC50,[1]; read-out: PI3K δ IC50,< 100 nM
same,IC50,[5],< 100 nM
same,IC50,[3],< 100 nM
same,IC50,[4],< 1000 nM
same,IC50,[6],< 100 nM
Nc1nc2cc(-c3ccc4ncc(N5CC(N6CCOCC6)C5)nc4c3)ccc2o1,IC50,[1]; read-out: PI3K δ IC50,< 10000 nM
same,IC50,[5],> 10000 nM
same,IC50,[3],< 100 nM
same,IC50,[4],< 1000 nM
same,IC50,[6],> 10000 nM
CC(=O)Nc1cn2cc(-c3ccc4oc(N)nc4c3)ccc2n1,IC50,[1]; read-out: PI3K δ IC50,< 100 nM
same,IC50,[5],< 100 nM
same,IC50,[3],< 100 nM
same,IC50,[4],< 1000 nM
same,IC50,[6],< 1000 nM
CC(C)[C@@H](N)C(=O)N1CCN(c2cnc3ccc(-c4ccc5oc(N)nc5c4)cc3n2)CC1,IC50,[1]; read-out: PI3K δ IC50,< 1000 nM
same,IC50,[5],< 1000 nM
same,IC50,[3],< 100 nM
same,IC50,[4],< 10000 nM
same,IC50,[6],< 1000 nM
Nc1ncc(-c2ccc3oc(N)nc3c2)cn1,IC50,[1]; read-out: PI3K δ IC50,< 10000 nM
same,IC50,[5],> 10000 nM
same,IC50,[3],> 10000 nM
same,IC50,[4],> 10000 nM
same,IC50,[6],> 10000 nM
Nc1nc2cc(-c3ccc4ncc(N5CC(N6CCN(CCO)CC6)C5)nc4c3)ccc2o1,IC50,[1]; read-out: PI3K δ IC50,< 10000 nM
same,IC50,[5],< 1000 nM
same,IC50,[3],< 100 nM
same,IC50,[4],> 10000 nM
same,IC50,[6],< 10000 nM
CCN(CC)C1CN(c2cnc3ccc(-c4ccc5oc(N)nc5c4)cc3n2)C1,IC50,[1]; read-out: PI3K δ IC50,< 1000 nM
same,IC50,[5],< 10000 nM
same,IC50,[3],< 100 nM
same,IC50,[4],> 10000 nM
same,IC50,[6],< 10000 nM
CC(C)N1CCN(C2CN(c3cnc4ccc(-c5ccc6oc(N)nc6c5)cc4n3)C2)CC1,IC50,[1]; read-out: PI3K δ IC50,< 10000 nM
same,IC50,[5],< 10000 nM
same,IC50,[3],< 100 nM
same,IC50,[4],> 10000 nM
same,IC50,[6],< 10000 nM
CN1CCN(C2CN(c3cnc4ccc(-c5ccc6oc(N)nc6c5)cc4n3)C2)CC1=O,IC50,[1]; read-out: PI3K δ IC50,< 1000 nM
same,IC50,[5],< 10000 nM
same,IC50,[3],< 100 nM
same,IC50,[4],> 10000 nM
same,IC50,[6],< 10000 nM
CN1CCN(C2CN(c3cnc4ccc(-c5ccc6oc(N)nc6c5)cc4n3)C2)CC1,IC50,[1]; read-out: PI3K δ IC50,< 10000 nM
same,IC50,[5],< 10000 nM
same,IC50,[3],< 100 nM
same,IC50,[4],< 10000 nM
same,IC50,[6],< 10000 nM
Nc1nc2cc(-c3ccc4nc(N)sc4c3)ccc2o1,IC50,[1]; read-out: PI3K δ IC50,< 1000 nM
same,IC50,[5],< 10000 nM
same,IC50,[3],< 1000 nM
same,IC50,[4],< 10000 nM
same,IC50,[6],< 1000 nM
Nc1nc2cc(-c3ccc4ncc(N5CC(N6CC[C@H](O)C6)C5)nc4c3)ccc2o1,IC50,[1]; read-out: PI3K δ IC50,< 1000 nM
same,IC50,[5],< 10000 nM
same,IC50,[3],< 100 nM
same,IC50,[4],> 10000 nM
same,IC50,[6],< 1000 nM
Nc1nc2cc(-c3ccc4ncc(N5CC(N6CC[C@@H](O)C6)C5)nc4c3)ccc2o1,IC50,[1]; read-out: PI3K δ IC50,< 10000 nM
same,IC50,[5],< 10000 nM
same,IC50,[3],< 100 nM
same,IC50,[4],< 1000 nM
same,IC50,[6],< 10000 nM
Nc1nc2cc(-c3ccc4ncc(N5CC[C@H](O)C5)nc4c3)ccc2o1,IC50,[1]; read-out: PI3K δ IC50,< 1000 nM
same,IC50,[5],> 10000 nM
same,IC50,[3],< 100 nM
same,IC50,[4],< 10000 nM
same,IC50,[6],< 1000 nM
Cc1ccn(C2CN(c3cnc4ccc(-c5ccc6oc(N)nc6c5)cc4n3)C2)n1,IC50,[1]; read-out: PI3K δ IC50,< 10000 nM
same,IC50,[5],< 10000 nM
same,IC50,[3],< 100 nM
same,IC50,[4],> 10000 nM
same,IC50,[6],< 10000 nM
Nc1nc2cc(-c3ccc4ncc(N5CC(N6CCOCC6)C5)nc4c3)c(F)cc2o1,IC50,[1]; read-out: PI3K δ IC50,< 10000 nM
same,IC50,[5],< 10000 nM
same,IC50,[3],< 100 nM
same,IC50,[4],> 10000 nM
same,IC50,[6],< 10000 nM
CS(=O)(=O)N1CCN(C2CCN(c3cnc4ccc(-c5ccc6oc(N)nc6c5)cc4n3)CC2)CC1,IC50,[1]; read-out: PI3K δ IC50,< 1000 nM
same,IC50,[5],< 10000 nM
same,IC50,[3],< 100 nM
same,IC50,[4],< 10000 nM
same,IC50,[6],< 10000 nM
Nc1nc2cc(-c3ccc4ncc(N5CCC(n6ccnc6)CC5)nc4c3)ccc2o1,IC50,[1]; read-out: PI3K δ IC50,< 1000 nM
same,IC50,[5],< 1000 nM
same,IC50,[3],< 100 nM
same,IC50,[4],< 10000 nM
same,IC50,[6],< 1000 nM
Nc1nc2cc(-c3ccc4ncc(N5CCN(C(=O)[C@@H](N)CO)CC5)nc4c3)ccc2o1,IC50,[1]; read-out: PI3K δ IC50,< 10000 nM
same,IC50,[5],< 10000 nM
same,IC50,[3],< 100 nM
same,IC50,[4],< 10000 nM
same,IC50,[6],< 1000 nM
COc1ncc(-c2ccc3ncc(C(=O)N4CCOCC4)n3c2)cc1NS(=O)(=O)c1ccc(F)cc1F,IC50,[1]; read-out: PI3K δ IC50,< 100 nM
same,IC50,[5],< 100 nM
same,IC50,[3],< 100 nM
same,IC50,[4],< 1000 nM
same,IC50,[6],< 100 nM
C[C@H]1CN(C2CN(c3cnc4ccc(-c5ccc6oc(N)nc6c5)cc4n3)C2)CCN1,IC50,[1]; read-out: PI3K δ IC50,> 10000 nM
same,IC50,[5],< 10000 nM
same,IC50,[3],< 100 nM
same,IC50,[4],> 10000 nM
same,IC50,[6],< 10000 nM
CS(=O)(=O)Nc1cc(-c2ccc3ncc(C(=O)N4CCOCC4)n3c2)cnc1Cl,IC50,[1]; read-out: PI3K δ IC50,< 100 nM
same,IC50,[5],< 100 nM
same,IC50,[3],< 100 nM
same,IC50,[4],< 100 nM
same,IC50,[6],< 100 nM
Nc1nc2cc(-c3ccc4ncc(N5CCNC(C(F)(F)F)C5)nc4c3)ccc2o1 (stereo not shown),IC50,[1]; read-out: PI3K δ IC50,< 1000 nM
same,IC50,[5],< 10000 nM
same,IC50,[3],< 100 nM
same,IC50,[4],< 1000 nM
same,IC50,[6],< 1000 nM
Nc1nc2cc(-c3ccc4ncc(N5CC(C(=O)N6CCN(C7CC7)CC6)C5)nc4c3)ccc2o1,IC50,[1]; read-out: PI3K δ IC50,< 1000 nM
same,IC50,[5],< 1000 nM
same,IC50,[3],< 100 nM
same,IC50,[4],< 10000 nM
same,IC50,[6],< 10000 nM
CC(=O)Nc1ncc(-c2ccc3oc(N)nc3c2)s1,IC50,[1]; read-out: PI3K δ IC50,< 10000 nM
same,IC50,[5],< 10000 nM
same,IC50,[3],< 10000 nM
same,IC50,[4],< 10000 nM
same,IC50,[6],> 10000 nM
Cc1cc2oc(N)nc2cc1-c1ccc2ncc(N3CC(N4CCOCC4)C3)nc2c1,IC50,[1]; read-out: PI3K δ IC50,> 10000 nM
same,IC50,[5],> 10000 nM
same,IC50,[3],< 10000 nM
same,IC50,[4],> 10000 nM
same,IC50,[6],> 10000 nM
CN1CCN(c2cnc3ccc(-c4ccc5oc(N)nc5c4)cc3n2)CC1=O,IC50,[1]; read-out: PI3K δ IC50,< 1000 nM
same,IC50,[5],< 10000 nM
same,IC50,[3],< 100 nM
same,IC50,[4],< 10000 nM
same,IC50,[6],< 1000 nM
Nc1nc2cc(-c3nc(N4CCOCC4)c4cnn(C5CCNCC5)c4n3)ccc2o1,IC50,[1]; read-out: PI3K δ IC50,< 1000 nM
same,IC50,[5],< 10000 nM
same,IC50,[3],< 1000 nM
same,IC50,[4],< 1000 nM
same,IC50,[6],< 100 nM
Nc1nc2cc(-c3ccc4ncc(N5CC(N6CCNCC6)C5)nc4c3)ccc2o1,IC50,[1]; read-out: PI3K δ IC50,< 1000 nM
same,IC50,[5],< 1000 nM
same,IC50,[3],< 100 nM
same,IC50,[4],> 10000 nM
same,IC50,[6],< 1000 nM
